Data: patent US9243247B2, “Composition for promoting apoptosis or inhibiting cell growth, comprising epstein-barr virus microrna” (Catholic University Industry Academic Cooperation Foundation, priority 2011, dated 2016)
“Also recorded” adds a separate entry of the source.

Experiments:
Assay type in all cases: cell-based
[1] = tested on: AGS cell strain; test: Measurement of apoptosis (Annexin V staining, FACS); conditions: for Relative Apoptotic cell: mimic 10 nM, 10 uM 5-FU 24 h after transfection, then 48 hours, Annexin V, relative to scrambled control (=1), n=9
Summary of the method: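 EBV-negative AGS cells (2×10^5/well) were transfected with 10 nM synthetic miRNA. Twenty-four hours later they received 10 uM 5-FU for 48 h at 37 °C. The apoptotic cell ratio was measured by PE Annexin V staining and FACS.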

[2] = tested on: BIRC6 protein; test: BIRC6 protein level by Western blotting; conditions: AGS; 48 hours after transfection; listed as miR-BART15-3p
Protocol: (§1) miR-BART15-3p was transfected to AGS by using lipofectamine-2000. Forty eight hours after the transfection, the cells were harvested and a QRT-PCR and a Western blotting were performed (FIGS. 12A and 12B). The BIRC6 mRNA level was not changed in the AGS to which miR-BART15-3p was transfected, while the protein level was decreased.
(§2) An miR-BART15-3p inhibitor was transfected to AGS-EBV by using lipofectamine-2000. Forty eight hours after the transfection, the cells were harvested and a QRT-PCR and a Western blotting were performed (FIGS. 12C and 12D). The BIRC6 mRNA level was not changed in the AGS-EBV to which an miR-BART15-3p inhibitor was transfected, while the protein level was increased.

[3] = tested on: 3′UTR of TAX1BP1; test: Dual luciferase reporter assay (psiCHECK) in HEK293T, TAX1BP1 3'UTR; conditions: psiCHECK with TAX1BP1 3′UTR, 48 hours after transfection
Text: For an miRNA target test, to psiCHECK, which is a luciferase vector (FIG. 9) specially designed for an miRNA target test including a firefly gene and a renilla gene in the same vector, a 3′UTR of the five genes shown in Table 5, which might be targeted by miR-BART15-3p, was individually cloned to prepare a vector for a target test for each of the genes.
HEK293T was divided into a 96-well plate such that 5×10^3 cells were allocated to each well, and miR-BART15-3p and a vector for a target test were transfected by using lipofectamine2000. Forty eight hours after the transfection, a dual luciferase reporter assay (Virology. 412(2), 392-400 (2011)) was performed to normalize the results with reference to firefly luciferase and observe a variation of the renilla luciferase gene expression. […] The renilla value was not decreased by […] which was formed by mutating a seed part of miR-BART15-3p (FIG. 10).

[4] = tested on: BIRC6 mRNA; test: BIRC6 mRNA level by QRT-PCR; conditions: AGS; 48 hours after transfection
Protocol: as §1, §2

[5] = tested on: AGS cell strain; test: Cell growth test (CCK-8 assay) after transfection of BART miRNA mimics; conditions: for Relative Cell Growth: relative to scrambled control (=1)
Summary of the method: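 EBV-negative AGS gastric cells in RPMI1640 with 10% FBS, seeded 1×10^3 cells/well and transfected with synthetic mature BART miRNA mimics (10 nM; dose series 1, 3, 10, 30 nM) via G-fectin. Growth read by CCK-8 after 72 h (or over time), 2 h at 37 °C, absorbance measured.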

[6] = AGS, mimic 10 nM in combination with 10 uM 5-FU

BART15-3p: EBV BART miRNA mimic, double stranded RNA; sense SEQ NO: 15, antisense SEQ NO: 16 (sense GUCAGUGGUUUUGUUUCCUUGA; antisense UCAAGGAAACAAAACCACUGAC; chemistry not given here)
ratio of early apoptotic cell [1, 6]: increased
ratio of late apoptotic cell [1, 6]: increased
degree of apoptosis, combination with 5-FU versus sum of single treatments ([1]; AGS, mimic 10 nM plus 10 uM 5-FU): synergetic effect
ratio of early apoptotic cell ([1]; AGS, mimic 10 nM treated alone): increased
ratio of late apoptotic cell ([1]; AGS, mimic 10 nM treated alone): increased
Relative Apoptotic cell ([1]; AGS): 1.665
Relative Apoptotic cell ([1]; AGS, listed as 15-3p): significantly higher
effect on cell growth and apoptosis (summary statement) ([1]; mimics transfected to AGS, tumor cell strain not infected with EBV): inhibit cell growth and promote apoptosis
BIRC6 protein level [2]: decrease
renilla value (renilla luciferase, normalized to firefly) [3]: decrease
BIRC6 mRNA level [4]: not changed
cell growth lower than that of a scrambled control ([5]; 3 nM, 72 hours after transfection): 50%
cell growth ([5]; 10 nM, 72 hours after transfection): almost no cell growth
cell growth ([5]; 30 nM, 72 hours after transfection): almost no cell growth
Relative Cell Growth ([5]; mimic 10 nM, 72 hours after transfection, n=9): 0.5676
Relative Cell Growth ([5]; mimic 10 nM, 72 hours after transfection, n=9, listed as miR-BART15-3p): inhibited cell growth
cell growth over time ([5]; mimic 10 nM, depending on treatment time, listed as miR-BART15-3p): greatly decreased cell growth; also recorded: inhibited cell growth almost entirely
